Columns and labels:
Transthyretin [1] = molecular target: T1, Transthyretin (Homo sapiens, UniProt P02766); experiment: Binding of Examples to Transthyretin - EC50 Determination
Description: TTR SPA binding assays were performed in a final volume of 60 mI containing 100 ng human TTR (biotinylated recombinant protein) coupled to 25 pg SPA beads (streptavidin coated, Perkin Elmer, RPNQ0007) and 50 nM [3H] tafamidis (Moravek, MT-1003033), plus varying concentrations of test compound or vehicle. Briefly, assays were prepared at room temperature in 384-well plates (Corning, 3767) containing 200 nl_ of test compound in DMSO (or DMSO as vehicle). The plates also contained wells with a saturating concentration of unlabeled ligand (200 nl_ of 3 mM tafamidis or 3 mM thyroxine in DMSO) for measuring non-specific binding. Assays were initiated by addition of 20 mI of […] TTR protein in assay buffer (10 mM Tris pH 7.5, 150 mM NaCI, 0.25% Triton X-100) and 20 mI_ of 150 nM [3H] tafamidis in assay buffer. The plates were incubated 1 hour prior to addition of 20 mI_ of 1.25 mg/ml_ SPA beads diluted in assay buffer. The assays were incubated an additional 10 hours to allow binding to reach equilibrium and the amount of receptor-ligand complex was determined by liquid scintillation counting using a 1450 Microbeta Trilux (Wallac). The % effect values for test wells were calculated based on the total binding (vehicle, 0% effect) and non-specific binding (unlabeled ligand, 100% effect) wells on each assay plate. ECso values were then determined using a standard 4 parameter logistic dose response equation.

Transthyretin [2] = molecular target: T1, Transthyretin; experiment: KD Determination by SPR
Description: Affinity and Reversibility -The binding affinity and kinetics of binding were measured using Surface Plasmon Resonance based binding assay. These experiments were carried out on Bruker SPR MASS-1 and MASS-2 instruments. There was no significant difference in results obtained on both these instruments. Bap-tagged TTR protein was captured on a Streptavidin coated sensor chip to achieve about 2000 to 3000 RUs of surface density. All the samples were prepared in buffer consisting of 10 mM Sodium Phosphate, pH 7.6, 100 mM KCI, 0.005% Tween-20 and 2% DMSO. The same buffer was used as the running buffer during the experiments. Compound samples were injected at a flow rate of 30 pL/min for 90 seconds of association time followed by at least 240 seconds of dissociation period. The compounds were tested in a concentration series consisting of at least 6 samples (usually 10) made with 5-fold, 3-fold, or 2-fold dilution. The highest concentration was […] or selected based on compound binding affinity observed in a previous experiment. […] The data were processed and analyzed using Bruker Analyzer and Scrubber to calculate binding affinities by fitting the data to 1:1 binding model. […] Tafamidis binds to TTR in a reversible manner with calculated residence time of around 40 seconds.

Structure (SMILES) | EC50 (Transthyretin [1]) [nM] | Kd (Transthyretin [2]) [nM]
Cc1[nH]nc(C#N)c1-c1ccc(C(F)(F)F)c2scnc12 [WO2022112919, Example 9] | 36 | 
COc1cc(-c2c(C)n[nH]c2C)c2ncsc2c1 [WO2022112919, Example 14] | 25 | 
Cc1n[nH]c(C)c1-c1ccnc2scnc12 [WO2022112919, Example 19] |  | 39

Results, then the molecule that gave them:

EC50 (Transthyretin [1]) [nM] | Kd (Transthyretin [2]) [nM] | Structure (SMILES)
14 | 17 | Cc1n[nH]c(C)c1-c1cccc2ncsc12 [WO2022112919, Example 2]
20 |  | Cc1[nH]nc(C#N)c1-c1ccc(C)c2scnc12 [WO2022112919, Example 8]
21 |  | Cc1cc(-c2c(C)n[nH]c2C)c2ncsc2c1 [WO2022112919, Example 13]
21 |  | Cc1n[nH]c(C)c1-c1cc(F)cc2scnc12 [WO2022112919, Example 15]
